Consider one compound from patent US20090176996A1, “PROCESS FOR THE PREPARATION OF SULFAMIDE DERIVATIVES” (priority 2008, published 2009).

Structures are written as SMILES.

`NS(=O)(=O)NCc1ccccc1` (hydrate or solvate) [Example 5, Benzylsulfamide] had a melting point of 102 to 104 °C.

A word on the melting point: it is the temperature, or range, at which the solid turns liquid.
